# Patent publication US7425548B2, “Materials and methods for immune system stimulation” (Variety Chidren's Hospital, priority 2004, dated 2008)
# Like-named read-outs stand apart in the source and are kept apart here.
# Experiments:
# [1] = system: I-κBα in RAW 264.7 macrophages; experiment: I-κBα degradation, immunoblot; format: cell-based, mouse; conditions: RR1 100 μg/ml, western blot
# Protocol: The cells were treated with RR1 at intervals of 15, 30, and 60 minutes. Degradation of I-κBα levels in cytoplasmic lysates was determined by immunoblot analysis using antimouse I-κBα mAb. I-κBα degradation. The degradation of IκB-α is a prerequisite for the activation of NF-κB. To determine the effect of RR1 on cellular IκB-α levels and its degradation, immunoblot analysis was performed with cytosolic lysates from RR1-treated RAW 264.7 macrophages for different time periods (0, 15 minutes, 30 minutes, 1 hour). The lysates were separated by SDS-PAGE on 12% gels and transferred to nitrocellulose membranes using a TransBlot apparatus (BIO-RAD, Hercules, Calif.). The membranes were hybridized with IκB-α specific monoclonal antibodies (1:1000) by the Western blot hybridization protocol (Lebron, F. et al. J Biol Chem., 2003, 278:25001-25008) using antimouse IκB-α antibody (CELL SIGNALING TECHNOLOGY, Inc, Beverly, Mass.) using the color detection system (BIO-RAD, Hercules, Calif.).
# normal lymphocytes [2] = experiment: Quantification of cytokine and chemokine synthesis by ELISA; format: cell-based, human
# Protocol: FIGS. 8A-8H show synthesis of cytokines and chemokine in RR1-induced normal lymphocytes. Normal lymphocytes from healthy volunteers were treated with RR1 (0-100 μg) at 37° C. for 24 hours in a CO2 incubator in RPMI medium. The supernatant medium was analyzed for the production of cytokines and chemokine in an ELISA procedure using reagent kits (BD Biosciences).
# Immunostimulating Properties. To measure the immune stimulatory property of RR1, the activation of the different subsets of lymphocytes, syntheses of cytokines such as interleukin (IL)-1β, IL-2, IL-4, IL-6, IL-10, IL-12 p70 and p40, IL-18, interferon (IFN)-α and γ, Tumor Necrosis factor (TNF)-α and β, monocyte chemo-attractant protein (MCP)-1, synthesis of nitric oxide (NO), and the extent of oxidative stress elicited in human lymphocytes was analyzed. Normal lymphocytes were isolated by the histopaque density gradient method from fresh blood drawn from healthy volunteers and utilized for various assays. Human leukemic (CEM) and multidrug resistant (CEM/VLB) cell lines were grown in RPMI medium supplemented with 10% fetal bovine serum and antibiotics in 5% CO2 incubator at 37° C.
# Quantification of Cytokine and Chemokine Synthesis. Cytokines such as IL-1β, IL-2, IL-4, IL-6, IL-10, IL-12p40, IL-12p70, IL-18, IFN-γ and TNF-α, β and chemokine, MCP-1 were quantified by ELISA procedure using kits from BD Biosciences, according to manufacturer's protocols. IFN-α was assayed using the ELISA kit of RESEARCH DIAGNOSTICS Inc. (New Jersey). In short, 50 μl of ELISA diluent is pipetted into antibody coated wells of 96 well plates followed by 100 μl of each standard and test samples, shaken for 5 seconds to mix the contents in the wells, covered with plate sealer and incubated for 2 hours at room temperature. After incubation, the contents of the wells were aspirated and washed five times with wash solution. After complete removal of the wash solution in the final wash, 100 μl of detection solution was added, covered with plate sealer, and incubated for 1 hour. The wells were washed 7 times with wash solution and added 100 μl of one step substrate reagent and incubated for 30 minutes in dark. The color development was stopped by adding 50 μl of stop solution and the absorbance were recorded at 450 nm with a reference wave length of 570 nm in a BIO-RAD Benchmark plate reader.
# normal lymphocytes [3] = experiment: as above; format: cell-based, human; conditions: at 100 pg/ml concentration
# [4] = system: C3a des Arg (alternative pathway); experiment: Complement activation pathway EIA in normal blood; set-up: species or system human; conditions: RR1 0-100 μg/ml, 24 hours
# Protocol: Normal blood samples from healthy volunteers were incubated with RR1 (0-100 μg) for 24 hours. Human complement C3a des Arg and C4a des Arg correlate EIA Kits (Assay Design Inc., Ann Arbor, Mich.) were used for quantification of classic and alternative pathway of complement activation using an ELISA procedure. ***p<0.001.
# Complement activation pathway. Human complement C3a des Arg and C4a des Arg correlate-EIA Kits (ASSAY DESIGN Inc., Ann Arbor, Mich.) were used to measure the cleaved complement components (C3a des Arg and C4a des Arg) according to the manufacturer's protocols. In brief, 1 ml normal blood, drawn from healthy volunteer was incubated with 0-100 μg/ml of RR1 in a CO2 incubator at 37° C. for 24 hours. The treated blood samples were centrifuged at 2000×g at 4° C. and 225 μl of complement reagent ‘A’ was added to an equal volume of the sample supernatant and vortexed thoroughly. To this mixture, 50 μl of 10 N HCl was added, vortexed again and incubated at room temperature for 1 hour. […] The plate was incubated at 37° C. for 1 hour without shaking, added 50 μl of stop solution and absorbance was taken at 405 nm with a reference wavelength of 570 nm in a BIO-RAD Bench top plate reader.
# [5] = RR1 0-100 μg, 24 hours (FIGS. 8A-8H)
substance,measurement,setting,value
"(1,4)-α-D-glucan [RR1]",time to complete removal of I-κBα expression,[1],60 min
same,synthesis of IFN-γ,normal lymphocytes [2],90.16 pg/mL
same,synthesis of IL-6,normal lymphocytes [2],21833 pg/mL
same,synthesis of IL-12 p40,normal lymphocytes [2],918.23 pg/mL
same,synthesis of IL-12 p70,normal lymphocytes [2],50.19 pg/mL
same,synthesis of MCP-1,normal lymphocytes [2],2307 pg/mL
same,production of IFN-α,normal lymphocytes [2]; 24 hours,did not induce
same,production of IL-2,normal lymphocytes [2]; 24 hours,did not induce
same,production of IL-4,normal lymphocytes [2]; 24 hours,did not induce
same,production of IL-10,normal lymphocytes [2]; 24 hours,did not induce
same,production of TNF-β,normal lymphocytes [2]; 24 hours,did not induce
same,RR1 concentration at which the maximum IL-12 (p40) was recorded,normal lymphocytes [2]; FIG. 8C,10 µg/mL
same,synthesis of IFN-γ,normal lymphocytes [2]; [5],90.16 pg
same,synthesis of IL-1β,normal lymphocytes [2]; [5],1080 pg
same,synthesis of IL-6,normal lymphocytes [2]; [5],21833 pg
same,synthesis of IL-12 p40,normal lymphocytes [2]; [5],918.23 pg
same,synthesis of IL-12 p70,normal lymphocytes [2]; [5],50.19 pg
same,synthesis of IL-18,normal lymphocytes [2]; [5],27.47 pg
same,synthesis of MCP-1,normal lymphocytes [2]; [5],2307 pg
same,synthesis of TNF-α,normal lymphocytes [2]; [5],2225 pg
same,synthesis of IL-18,normal lymphocytes [2]; at 100 pg/ml concentration,27.47 pg/mL
same,synthesis of TNF-α,normal lymphocytes [2]; at 100 pg/ml concentration,2225 pg/mL
same,synthesis of IL-1β,normal lymphocytes [3],1080 pg/mL
same,levels of C3a des Arg of the alternative pathway,[4],step-wise increase
